# Literature values as cited in patent US20050113433A1, “Compositions of a phenyl acetic acid cyclooxygenase-2 selective inhibitor and a cholinergic agent for the treatment of reduced blood flow or trauma to the central nervous system” (Pharmacia Corporation, priority 2003, published 2005).
# Conditions: administered to subjects following stroke
compound,measurement,value
C[N+](C)(C)CCOP(=O)(O)OP(=O)(O)OC[C@H]1O[C@@H](n2ccc(N)nc2=O)[C@H](O)[C@@H]1O [citicoline],behavioral parameters,improvement in behavioral parameters
same,infarction volume,decrease in infarction volume
